Results published in patent US8143244B2, “Cyclopropyl fused indolobenzazepine HCV NS5B inhibitors” (Bristol-Myers Squibb Company, priority 2009, dated 2012).

Assays:
HCV replicon [1] = assay: HCV replicon FRET / luciferase assay (NeoLuc); format: cell-based, HCV genotype 1b; details: HCV replicon cells
Description: FRET Assay Preparation. To perform the HCV FRET screening assay, 96-well cell culture plates were used. The FRET peptide (Anaspec, Inc.) (Taliani et al., Anal. Biochem. 1996, 240, 60-67) contains a fluorescence donor, EDANS, near one end of the peptide and an acceptor, DABCYL, near the other end. The fluorescence of the peptide is quenched by […] resonance energy transfer (RET) between the donor and the acceptor, but as the NS3 protease cleaves the peptide the products are released from RET quenching and the fluorescence of the donor becomes apparent. The assay reagent was made as follows: 5× cell Luciferase cell culture lysis reagent from Promega (#E153A) diluted to 1× with dH2O, NaCl added to 150 mM final, the FRET peptide diluted to 20 μM final from a 2 mM stock.
To prepare plates, HCV replicon cells, with or without a Renilla luciferase reporter gene, were trypsinized and placed into each well of a 96-well plate with titrated test compounds added in columns 3 through 12; columns 1 and 2 contained a control compound (HCV protease inhibitor), and the bottom row contained cells without compound. The plates were then placed in a CO2 incubator at 37° C.
Assays. Subsequent to addition of the test compounds described above (FRET Assay Preparation), at various times the plate was removed and Alamar blue solution (Trek Diagnostics, #00-100) was added per well as a measure of cellular toxicity. After reading in a Cytoflour 4000 instrument (PE Biosystems), plates were rinsed with PBS and then used for FRET assay by the addition of 30 ul of the FRET peptide assay reagent described above (FRET Assay Preparation) per well. The plate was then placed into the Cytoflour 4000 instrument which had been set to 340 excite/490 emission, automatic mode for 20 cycles and the plate read in a kinetic mode. Typically, the signal to noise using an endpoint analysis after the reads was at least three-fold. Alternatively, after Alamar blue reading, plates were rinsed with PBS, 50 ul of DMEM (high glucose) without phenol red was added and plates were then used for luciferase assay using the Promega Dual-Glo Luciferase Assay System,
Compound analysis was deteiniined by quantification of the relative HCV replicon inhibition and the relative cytotoxicity values. To calculate cytoxicity values, the average Alamar Blue fluorescence signals from the control wells were set as 100% non-toxic. The individual signals in each of the compound test wells were then divided by the average control signal and multiplied by 100% to determine […]. To calculate the HCV replicon inhibition values, an average background value was obtained from the two wells containing the highest amount of HCV protease inhibitor at the end of the assay period. These numbers were similar to those obtained from naïve Huh-7 cells.
The background numbers were then subtracted from the average signal obtained from the control wells and this number was used as 100% activity. The individual signals in each of the compound test wells were then divided by the averaged control values after background subtraction and multiplied by 100% to determine percent activity. EC50 values for a protease inhibitor titration were calculated as the concentration which caused a 50% reduction in FRET or luciferase activity. The two numbers generated for the compound plate, percent cytoxicity and percent activity were used to determine compounds of interest for further analysis.

HCV replicon [2] = assay: HCV Replicon Luciferase Reporter Assay (LE Assay); format: cell-based, HCV genotype 1b
Method: The HCV replicon luciferase assay was developed to monitor the inhibitory effects of compounds described in the disclosure on HCV viral replication. Utilization of a replicon luciferase reporter assay was first described by Krieger et al (Krieger N, Lohmann V, and Bartenschlager R, J. Virol. 75(10):4614-4624 (2001)). HUH-7 cells, constitutively expressing the HCV replicon, were grown in Dulbeccors Modified Eagle Media (DMEM) (Gibco-BRL) containing 10% Fetal calf serum (FCS) (Sigma) and 1 mg/ml G418 (Gibco-BRL). Compounds were serially diluted 3 folds in DMSO for a twenty-point titration and subsequently transferred to sterile 384-well tissue-culture treated plates (Coming cat #3571). The plates were then seeded with 50 μl of cells at a density of 3.0×10^3 cells/well in DMEM containing 4% FCS (final DMSO concentration at 0.5%). After 3 days incubation at 37° C., cells were analyzed for Renilla Luciferase activity using the EnduRen as substrate (Promega cat #E6485). The EnduRen substrate was diluted in DMEM and then added to the plates to a final concentration of 7.5 μM. The plates were incubated for 2 hrs at 37° C. and then read immediately for 30 seconds with Viewlux Imager (PerkinElmer) using a luminescence program. To assess cytotoxicity of compounds, CC50 values were generated by multiplexing the EnduRen-containing plates with Cell Titer-Blue (Promega, cat #G8082). 3 μl of Cell-Titer Blue was added to each well and incubated for 8 hrs at 37° C. The fluorescence signal from each well was read, with an excitation wavelength at 525/10 nm and an emission wavelength of 598/10 nm, using the Viewlux Imager.

[3] = Hepatitis C virus, genotype 1b, read-out: NeoLuc EC50, Table 1, genotype 1b
[4] = Hepatitis C virus, genotype 1b, Huh-7, read-out: LE NeoLuc EC50, Table 1, HUH-7 cells, genotype 1b replicon
[5] = Hepatitis C virus, Table 2, read-out: NeoLuc EC50
[6] = Hepatitis C virus, Huh-7, Table 2, HUH-7 cells, read-out: LE NeoLuc EC50
[7] = Table 2, HUH-7 cells, read-out: LE NeoLuc EC50

SMILES | EC50 (HCV replicon [1]; [3]) [nM] | EC50 (HCV replicon [2]; [4]) [nM] | further results
C=C(C)S(=O)(=O)NC(=O)c1ccc2c(C3CCCCC3)c3n(c2c1)C[C@@]1(C(=O)N2CC45COCC4(CN(C)C5)C2)C[C@H]1c1cc(OC)ccc1-3 (some centres unmarked) | 1.9 to 500 | 1.9 to 500 | –
COc1ccc2c(c1)[C@@H]1C[C@]1(C(=O)N1CC34CNCC3(CN(C)C4)C1)Cn1c-2c(C2CCCCC2)c2ccc(C(=O)NS(=O)(=O)C(C)C)cc21 (some centres unmarked) | 1.9 to 500 | 500 to 1000 | –
COc1ccc2c(c1)C=C(C(=O)N1CC34CN(C)CC3(CN(C)C4)C1)Cn1c-2c(C2CCCCC2)c2ccc(C(=O)NS(=O)(=O)N(C)C)cc21 (centres unmarked) | 1.9 to 500 | 1.9 to 500 | –
COc1ccc2c(c1)C1CC1(C(=O)N1CC34CNCC3(CN(C)C4)C1)Cn1c-2c(C2CCCCC2)c2ccc(C(=O)NS(=O)(=O)N(C)C)cc21 (centres unmarked) | 1.9 to 500 | 1.9 to 500 | –
COc1ccc2c(c1)C1CC1(C(=O)N1CC34CN(C)CC3(CN(C)C4)C1)Cn1c-2c(C2CCCCC2)c2ccc(C(=O)NS(=O)(=O)N(C)C)cc21 (centres unmarked) | 1.9 to 500 | 1.9 to 500 | –
COc1ccc2c(c1)[C@@H]1C[C@]1(C(=O)N1CC34CN(C)CC3(CN(C)C4)C1)Cn1c-2c(C2CCCCC2)c2ccc(C(=O)NS(=O)(=O)C(C)C)cc21 (some centres unmarked) | 1.9 to 500 | 1.9 to 500 | –
COc1ccc2c(c1)[C@@H]1C[C@]1(C(=O)N1CC34CNCC3(COC4)C1)Cn1c-2c(C2CCCCC2)c2ccc(C(=O)NS(=O)(=O)C(C)C)cc21 (some centres unmarked) | 1.9 to 500 | 1.9 to 500 | –
COc1ccc2c(c1)[C@@H]1C[C@]1(C(=O)N1CC34COCC3(CN(C)C4)C1)Cn1c-2c(C2CCCCC2)c2ccc(C(=O)NS(=O)(=O)C(C)C)cc21 (some centres unmarked) | 1.9 to 500 | 1.9 to 500 | –
COc1ccc2c(c1)C1CC1(C(=O)N1CC34CNCC3(COC4)C1)Cn1c-2c(C2CCCCC2)c2ccc(C(=O)NS(=O)(=O)N(C)C)cc21 (centres unmarked) | 1.9 to 500 | 1.9 to 500 | –
COc1ccc2c(c1)C=C(C(=O)N1CC34CNCC3(COC4)C1)Cn1c-2c(C2CCCCC2)c2ccc(C(=O)NS(=O)(=O)N(C)C)cc21 (centres unmarked) | 1.9 to 500 | 1.9 to 500 | –
COc1ccc2c(c1)C=C(C(=O)N1CC34CNCC3(COC4)C1)Cn1c-2c(C2CCCCC2)c2ccc(C(=O)NS(=O)(=O)C3CC3)cc21 (centres unmarked) | 1.9 to 500 | 1.9 to 500 | –
COc1ccc2c(c1)C=C(C(=O)N1CC34COCC3(CN(C)C4)C1)Cn1c-2c(C2CCCCC2)c2ccc(C(=O)NS(=O)(=O)N(C)C)cc21 (centres unmarked) | 1.9 to 500 | 1.9 to 500 | –
COc1ccc2c(c1)C=C(C(=O)N1CC34COCC3(CN(C)C4)C1)Cn1c-2c(C2CCCCC2)c2ccc(C(=O)NS(=O)(=O)C3CC3)cc21 (centres unmarked) | 1.9 to 500 | 1.9 to 500 | –
CCN1CC23COCC2(C1)CN(C(=O)[C@]12C[C@H]1c1cc(OC)ccc1-c1c(C4CCCCC4)c4ccc(C(=O)NS(=O)(=O)C(C)C)cc4n1C2)C3 (some centres unmarked) | 1.9 to 500 | 1.9 to 500 | –
COc1ccc2c(c1)CC(C(=O)N1CC34CNCC3(COC4)C1)Cn1c-2c(C2CCCCC2)c2ccc(C(=O)NS(=O)(=O)C3CC3)cc21 (centres unmarked) | > 1000 | 500 to 5000 | –
COc1ccc2c(c1)CC(C(=O)N1CC34CN(C)CC3(CN(C)C4)C1)Cn1c-2c(C2CCCCC2)c2ccc(C(=O)NS(=O)(=O)N(C)C)cc21 (centres unmarked) | 1.9 to 500 | 1.9 to 500 | –
COc1ccc2c(c1)C1CC1(C(=O)N1CC34COCC3(CN(C(C)=O)C4)C1)Cn1c-2c(C2CCCCC2)c2ccc(C(=O)NS(=O)(=O)CC(C)C)cc21 (centres unmarked) | 1.9 to 500 | 500 to 1000 | –
COc1ccc2c(c1)CC(C(=O)N1CC34CNCC3(CN(C)C4)C1)Cn1c-2c(C2CCCCC2)c2ccc(C(=O)NS(=O)(=O)C3CC3)cc21 (centres unmarked) | > 1000 | 500 to 1000 | –
COc1ccc2c(c1)CC(C(=O)N1CC34COCC3(CN(C)C4)C1)Cn1c-2c(C2CCCCC2)c2ccc(C(=O)NS(=O)(=O)C3CC3)cc21 (centres unmarked) | 1.9 to 500 | 1.9 to 500 | –
COc1ccc2c(c1)[C@@H]1C[C@]1(C(=O)N1CC34COCC3(C1)CN(C1CC1)C4)Cn1c-2c(C2CCCCC2)c2ccc(C(=O)NS(=O)(=O)C(C)C)cc21 (some centres unmarked) | 1.9 to 500 | 1.9 to 500 | –
COc1ccc2c(c1)[C@@H]1C[C@]1(C(=O)N1CC34COCC3(C1)N(C(C)=O)C4)Cn1c-2c(C2CCCCC2)c2ccc(C(=O)NS(=O)(=O)N(C)C)cc21 (some centres unmarked) | 1.9 to 500 | 1.9 to 500 | –
COc1ccc2c(c1)C=C(C(=O)N1CC34COCC3(C1)N(C(C)=O)C4)Cn1c-2c(C2CCCCC2)c2ccc(C(=O)NS(=O)(=O)N(C)C)cc21 (centres unmarked) | 1.9 to 500 | 1.9 to 500 | –
COc1ccc2c(c1)C1CC1(C(=O)N1CC34CNCC3(CN(C)C4)C1)Cn1c-2c(C2CCCCC2)c2ccc(C(=O)NS(=O)(=O)C3CC3)cc21 (centres unmarked) | – | – | EC50 (HCV replicon [1]; [5]): > 1000 nM; EC50 (HCV replicon [2]; [6]): 2100 nM
COc1ccc2c(c1)C1CC1(C(=O)N1CC34COCC3(CN(C)C4)C1)Cn1c-2c(C2CCCCC2)c2ccc(C(=O)NS(=O)(=O)N(C)C)cc21 (centres unmarked) [drawing 61] | 1.9 to 500 | 1.9 to 500 | –
COc1ccc2c(c1)[C@@H]1C[C@]1(C(=O)N1CC34COCC3(C1)N(C(C)=O)C4)Cn1c-2c(C2CCCCC2)c2ccc(C(=O)NS(=O)(=O)C(C)C)cc21 (some centres unmarked) [drawing 73] | 1.9 to 500 | 1.9 to 500 | –
COc1ccc2c(c1)C1CC1(C(=O)N1CC34COCC3(CN(C)C4)C1)Cn1c-2c(C2CCCCC2)c2ccc(C(=O)NS(=O)(=O)N(C)C)cc21 (centres unmarked) [drawing 106] | – | – | EC50 (HCV replicon [1]; [5]): 20 nM; EC50 (HCV replicon [2]; [6]): 40 nM
COc1ccc2c(c1)[C@@H]1C[C@]1(C(=O)N1CC34COCC3(C1)N(C(C)=O)C4)Cn1c-2c(C2CCCCC2)c2ccc(C(=O)NS(=O)(=O)C(C)C)cc21 (some centres unmarked) [drawing 109] | – | – | EC50 (HCV replicon [1]; Table 2, read-out: NeoLuc EC50): 130 nM; EC50 (HCV replicon [2]; [7]): 90 nM
COc1ccc2c(c1)[C@@H]1C[C@]1(C(=O)N1CC34COCC3(C1)N(C(C)=O)C4)Cn1c-2c(C2CCCCC2)c2ccc(C(=O)NS(=O)(=O)C(C)C)cc21 (some centres unmarked) [drawing 110] | – | – | EC50 (HCV replicon [1]; Table 2, read-out: NeoLuc EC50): 10 nM; EC50 (HCV replicon [2]; [7]): 30 nM
